The results in this text go back to US10053477B2, “Spirocyclic aryl phosphorus oxide and aryl phosphorus sulfide” (QILU PHARMACEUTICAL CO., LTD., priority 2014, dated 2018).

As usually defined, the IC50 is the concentration at which inhibition is half-maximal. Read a low IC50 as greater potency.

One assay addresses T1, ALK wild-type (Homo sapiens, UniProt Q9UM73).
T1 construct: purchased Carna Biosciences (Japan)
Put plainly: ALK wild-type enzymatic inhibition (HTRF). The class given is biochemical. As to conditions: 30 μM ATP. As to the method:
(§1) Enzyme: ALK wild-type, ALK C1156Y and ALK L1196M supplied by Carna Biosciences (Japan), EGFR T790M/L858R supplied by Life technology (Madison, Wis.).
(§2) HTRF kit: supplied by Cis-Bio International, with Eu-marked TK1 antibody, XL665- and biotin-labelled TK1 polypeptide substrates.
10 μl wild-type ALK enzyme reaction mixture system: 0.5 nM wild-type ALK, 1 μM biotin-TK1 peptide, 30 μM ATP. Reaction buffer: 50 mM Hepes (pH7.5), 10 mM MgCl2, 0.01 mM NaV3VO4.
(§3) Incubation was carried out for 60 minutes at room temperature. Detection was by Envision.
In general terms: In TR-FRET formats the signal depends on donor and acceptor labels being close together.

The target in another assay is T2, ALK L1196M (Homo sapiens, UniProt Q9UM73, L1196M).
T2 construct: purchased Carna Biosciences (Japan)
In words: ALK L1196M enzymatic inhibition (HTRF). The class given is biochemical. As to conditions: 30 μM ATP. As to the method: as §1, §2
Reaction buffer: 50 mM Hepes (pH7.5), 10 mM MgCl2, 0.01 mM NaV3VO4.
as §3

The target in the next assay is T3, ALK C1156Y (Homo sapiens, UniProt Q9UM73, C1156Y).
T3 construct: purchased Carna Biosciences (Japan)
Put plainly: ALK C1156Y enzymatic inhibition (HTRF). As to conditions: 30 μM ATP. The format is biochemical. As to the method: as §1, §2
Reaction buffer: 50 mM Hepes (pH7.5), 10 mM MgCl2, 0.01 mM NaV3VO4. […] Reaction was reacted at room temperature for 60 minutes.
as §3

For a further assay, the target named is T4, EGFR T790M/L858R (Homo sapiens, UniProt P00533, L858R/T790M).
T4 construct: purchased Life technology (Madison, Wis.)
Put plainly: EGFR T790M/L858R enzymatic inhibition (HTRF). The format is biochemical. As to conditions: 20 μM ATP. As to the method:
as §1, §2
The compound to be tested is diluted at a gradient by 3 times thereby giving 11 gradients starting from […] to 0.017 nM for the final concentration.
10 μl EGFR T790M/L858R enzyme reaction mixture system: 0.08 nM EGFR T790M/L858R, 1 μM biotin-TK1 peptide, 20 μM ATP. Reaction buffer: 50 mM Hepes (pH7.5), 10 mM MgCl2, 0.01 mM NaV3VO4. The reaction plate was white Proxiplate 384-Plus plate (PerkinElmer). Reaction was reacted at room temperature for 60 minutes.
Detecting reaction: 10 μl testing reagent was added to the reaction plate, the final concentration of Antibody was 2 nM, XL665 was 62.5 nM. Incubation was carried out for 60 minutes at room temperature. Detection was by Envision.

For assay [1], the system named is LU-01-0015 xenotransplantation (PDX) from lung cancer patients. Put plainly: In vivo efficacy, LU-01-0015 xenotransplantation (PDX) from lung cancer patients. Details: species or system BALB/c nude mice. The following applies: for Tumor volume: 25 mg/kg orally everyday. The source says:
BALB/c nude mice, female, 6 to 8 weeks, about 18 to 22 g bodyweight, was kept in a special environment without pathogens, and a single ventilated cage (5 mice per cage). Beddings and water in all the cages were disinfected before use. […] 80 mice were supplied by Shanghai BK Laboratory Animal Co., LTD for study. Each mouse was subcutaneously implanted tumor tissue (20-30 mm^3) at right flank for growth of tumor. When the average tumor volume reached about 250-300 mm^3, the assay started. Test compounds were delivered orally everyday, 25 mg/kg. Tumor size was measured with two-dimensional caliper every 3 days, size was recorded by mm^3, and calculated by the following formula: V=V=0.5a×b2, where a and b are respectively the long diameter and short diameter length of the tumor. The antitumor efficacy was determined by dividing the average increased tumor volume in compound-treated animal by the average increased tumor volume in untreated animal.

Assay [2] deals with LU-01-0319 Crizotinib resistance model. In words: In vivo anti-tumor efficacy, Crizotinib resistant LU-01-0319 xenotransplantation (PDX) tumor. More on the design: species or system BALB/c nude mice. The source says: LU-01-0319 xenotransplantation tumor models initially obtained from clinical sample through surgical resection were implanted into nude mice, which was defined as a batch of P0 (LU-01-0319-P0). The next batch was defined as P1 (LU-01-0319-P1) which was implanted tumors from P0. FP3 was regained from P2, the next batch was defined as FP4 which was implanted tumors from FP3. […] The continuous increasing tumors were defined as LU-01-0319 antitumor models. BALB/c nude mice, female, 6 to 8 weeks, about 18 to 22 g bodyweight, 75 mice were used for study, supplied by Shanghai BK Laboratory Animal Co., LTD. Tumour biopsies (about 30 mm^3) of LU-01-0319R FP6 were implanted subcutaneously on right side of each mouse for growth of tumor. […] Dose of Crizotinib was appropriately varied depending on the tumor size. When average tumor volume reached about ˜500 mm^3, the assay began. Once a day the compounds to be tested were orally administered. Tumor size were measured twice a week with a caliper at two dimensions, and calculated with the following formula: V=0.5a×b2, where a and b are respectively long diameter and short diameter of the tumor. The antitumor efficacy was determined by dividing the average increased tumor volume in compound-treated animal by the average increased tumor volume in untreated animal.

For assay [3], the system named is LU-01-0319 xenotransplantation (PDX) from lung cancer patients. Put plainly: In vivo efficacy, LU-01-0319 xenotransplantation (PDX) from lung cancer patients. The following applies: 10 mg/kg orally everyday. Details: species or system BALB/c nude mice. The text has this:
BALB/c nude mice, female, 6 to 8 weeks, about 18 to 22 g bodyweight, was kept in a special environment without pathogens, and a single ventilated cage (5 mice per cage). Beddings and water in all the cages were disinfected before use. All the animal had free access to standard authorized commercially available lab diet. 80 mice were supplied by Shanghai BK Laboratory Animal Co., LTD for study. Each mouse was subcutaneously implanted tumor tissue (20-30 mm^3) at right flank for growth of tumor. When the average tumor volume reached about 250-300 mm^3, the assay started. Test compounds were delivered orally everyday, 10 mg/kg. Tumor size was measured with two-dimensional caliper every 3 days, size was recorded by mm^3, and calculated by the following formula: V=V=0.5a×b2, where a and b are respectively the long diameter and short diameter length of the tumor. The antitumor efficacy was determined by dividing the average increased tumor volume in compound-treated animal by the average increased tumor volume in untreated animal.

Where [4] appears, read: 0 day, dosage 3 mg/Kg orally once a day.
Setting [5] is: 0 day, dosage 10 mg/Kg orally once a day.
Setting [6] is: 3 days, dosage 3 mg/Kg orally once a day.
[7] abbreviates: 3 days, dosage 10 mg/Kg orally once a day.
[8] abbreviates: 7 days, dosage 3 mg/Kg orally once a day.
Where [9] appears, read: 7 days, dosage 10 mg/Kg orally once a day.
Setting [10] is: 10 days, dosage 3 mg/Kg orally once a day.
Setting [11] is: 10 days, dosage 10 mg/Kg orally once a day.
[12] abbreviates: 13 days, dosage 3 mg/Kg orally once a day.
[13] abbreviates: 13 days, dosage 10 mg/Kg orally once a day.
The mark [14] stands for this setting: 17 days, dosage 3 mg/Kg orally once a day.
The mark [15] stands for this setting: 17 days, dosage 10 mg/Kg orally once a day.
[16] abbreviates: 19 days, dosage 3 mg/Kg orally once a day.
[17] abbreviates: 19 days, dosage 10 mg/Kg orally once a day.

T2 sequence (Q9UM73 19-1620 L1196M): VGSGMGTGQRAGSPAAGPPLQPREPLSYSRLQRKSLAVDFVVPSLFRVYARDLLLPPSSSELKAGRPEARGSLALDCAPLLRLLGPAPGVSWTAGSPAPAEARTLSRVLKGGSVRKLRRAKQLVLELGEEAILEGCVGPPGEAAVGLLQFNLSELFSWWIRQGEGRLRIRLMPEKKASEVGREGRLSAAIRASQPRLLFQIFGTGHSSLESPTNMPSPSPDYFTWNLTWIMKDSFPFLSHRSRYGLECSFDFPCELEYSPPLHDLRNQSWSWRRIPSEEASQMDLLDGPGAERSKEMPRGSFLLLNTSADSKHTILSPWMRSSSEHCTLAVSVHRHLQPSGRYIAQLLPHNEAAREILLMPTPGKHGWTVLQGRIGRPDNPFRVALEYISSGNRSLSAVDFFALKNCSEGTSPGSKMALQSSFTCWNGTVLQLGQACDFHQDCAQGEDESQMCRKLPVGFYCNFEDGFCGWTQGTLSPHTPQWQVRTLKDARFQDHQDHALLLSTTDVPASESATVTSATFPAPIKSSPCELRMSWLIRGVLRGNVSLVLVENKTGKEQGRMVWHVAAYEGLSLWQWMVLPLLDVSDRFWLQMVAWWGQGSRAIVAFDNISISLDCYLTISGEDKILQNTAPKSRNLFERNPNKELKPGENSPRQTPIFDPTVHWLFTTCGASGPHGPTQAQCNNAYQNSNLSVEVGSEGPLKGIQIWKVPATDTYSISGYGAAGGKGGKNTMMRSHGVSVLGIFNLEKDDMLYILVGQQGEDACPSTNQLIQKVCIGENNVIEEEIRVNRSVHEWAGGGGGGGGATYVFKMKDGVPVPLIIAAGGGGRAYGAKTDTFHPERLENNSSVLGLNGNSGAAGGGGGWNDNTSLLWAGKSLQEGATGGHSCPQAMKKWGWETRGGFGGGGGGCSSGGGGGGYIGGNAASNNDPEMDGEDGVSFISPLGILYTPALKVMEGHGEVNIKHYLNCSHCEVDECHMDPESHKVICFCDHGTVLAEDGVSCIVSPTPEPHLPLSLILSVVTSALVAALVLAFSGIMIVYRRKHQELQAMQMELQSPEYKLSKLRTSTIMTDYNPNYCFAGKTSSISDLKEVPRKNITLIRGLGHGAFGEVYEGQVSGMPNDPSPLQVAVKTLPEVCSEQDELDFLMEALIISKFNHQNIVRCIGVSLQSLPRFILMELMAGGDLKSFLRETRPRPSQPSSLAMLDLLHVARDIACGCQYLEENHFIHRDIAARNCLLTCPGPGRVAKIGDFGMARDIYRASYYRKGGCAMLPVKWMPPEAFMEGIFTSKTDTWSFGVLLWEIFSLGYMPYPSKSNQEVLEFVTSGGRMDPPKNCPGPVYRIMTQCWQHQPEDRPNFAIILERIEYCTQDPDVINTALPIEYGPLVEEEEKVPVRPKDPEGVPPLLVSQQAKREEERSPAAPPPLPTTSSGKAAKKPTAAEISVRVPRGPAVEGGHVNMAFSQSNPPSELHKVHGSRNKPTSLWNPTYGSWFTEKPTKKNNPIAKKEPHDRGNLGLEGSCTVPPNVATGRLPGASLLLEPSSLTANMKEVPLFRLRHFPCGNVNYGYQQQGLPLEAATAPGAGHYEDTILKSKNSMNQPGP
T4 sequence (P00533 25-1210 T790M/L858R): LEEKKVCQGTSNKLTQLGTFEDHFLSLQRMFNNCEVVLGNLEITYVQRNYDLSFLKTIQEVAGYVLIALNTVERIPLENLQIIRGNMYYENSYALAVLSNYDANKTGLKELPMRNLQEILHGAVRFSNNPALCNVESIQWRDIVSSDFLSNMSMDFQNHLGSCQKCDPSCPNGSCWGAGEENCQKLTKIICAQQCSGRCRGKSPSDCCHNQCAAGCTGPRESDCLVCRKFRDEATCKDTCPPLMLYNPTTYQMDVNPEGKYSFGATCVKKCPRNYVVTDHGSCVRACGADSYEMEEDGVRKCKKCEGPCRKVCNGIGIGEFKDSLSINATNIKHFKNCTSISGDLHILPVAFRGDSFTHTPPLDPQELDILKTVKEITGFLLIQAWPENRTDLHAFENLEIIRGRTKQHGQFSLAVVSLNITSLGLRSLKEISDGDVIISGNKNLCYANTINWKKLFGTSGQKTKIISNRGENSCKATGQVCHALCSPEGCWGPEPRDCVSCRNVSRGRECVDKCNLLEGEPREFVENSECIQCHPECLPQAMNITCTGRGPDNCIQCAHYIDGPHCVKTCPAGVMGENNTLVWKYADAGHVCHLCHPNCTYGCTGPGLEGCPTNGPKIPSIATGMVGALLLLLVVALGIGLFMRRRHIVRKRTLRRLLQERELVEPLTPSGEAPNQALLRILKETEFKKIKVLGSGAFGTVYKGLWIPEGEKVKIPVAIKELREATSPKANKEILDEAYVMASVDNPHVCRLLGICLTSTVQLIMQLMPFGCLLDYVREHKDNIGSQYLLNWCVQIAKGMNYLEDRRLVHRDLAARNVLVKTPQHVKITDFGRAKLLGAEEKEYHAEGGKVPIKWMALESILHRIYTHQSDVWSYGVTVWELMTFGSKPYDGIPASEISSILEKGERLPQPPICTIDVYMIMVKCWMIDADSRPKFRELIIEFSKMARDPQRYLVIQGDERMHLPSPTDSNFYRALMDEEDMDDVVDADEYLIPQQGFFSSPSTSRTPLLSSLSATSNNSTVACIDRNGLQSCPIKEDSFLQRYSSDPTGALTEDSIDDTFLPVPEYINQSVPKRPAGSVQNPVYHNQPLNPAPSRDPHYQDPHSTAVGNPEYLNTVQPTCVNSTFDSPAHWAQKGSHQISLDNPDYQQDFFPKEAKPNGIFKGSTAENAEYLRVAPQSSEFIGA
T1 sequence (Q9UM73 19-1620): as the sequence (Q9UM73 19-1620 L1196M) above, with M1178L counted along it
T3 sequence (Q9UM73 19-1620 C1156Y): as the sequence (Q9UM73 19-1620 L1196M) above, with C1138Y, M1178L counted along it

Consider `COc1cc(N2CCC3(CCN(C)CC3)CC2)ncc1Nc1ncc(Cl)c(Nc2ccccc2P(C)(C)=O)n1` [Compound 24, (2-((5-Chloro-2-((4-methoxy-6-(9-methyl-3,9-diazaspiro[5.5]undecan-3-yl)pyridin-3-yl)amino)pyrimidin-4-yl)amino)phenyl)dimethyl phosphine oxide], for which the IC50 against ALK wild-type is 0.001 to 0.1 µM; on ALK L1196M, 0.001 to 0.1 µM; against ALK C1156Y, 0.001 to 0.1 µM; at EGFR T790M/L858R, 0.101 to 1 µM.

Consider `COc1cc(N2CCC(N3CCN(C)CC3)CC2)ccc1Nc1ncc(Cl)c(Nc2ccccc2P(C)(C)=O)n1` [AP26113, reference compound], for which the Tumor volume was 207 mm^3 in assay [1] (3 days); 174 mm^3 in assay [1] (6 days); 162 mm^3 in assay [1] (9 days); 142 mm^3 in assay [1] (12 days); 119 mm^3 in assay [1] (16 days); 122 mm^3 in assay [1] (19 days). Further, the Tumor volume in assay [1] (23 days) stood at 119 mm^3; in assay [2] (setting [4]) it was 501 mm^3; in assay [2] (setting [5]), 502 mm^3; in assay [2] (setting [6]) it was 656 mm^3; in assay [2] (setting [7]) it was 646 mm^3; in assay [2] (setting [8]) it was 690 mm^3. Further, the Tumor volume in assay [2] (setting [9]) stood at 604 mm^3; in assay [2] (setting [10]), 898 mm^3; in assay [2] (setting [11]), 593 mm^3; in assay [2] (setting [12]), 1096 mm^3; in assay [2] (setting [13]), 504 mm^3; in assay [2] (setting [14]) it was 1415 mm^3. Besides, the Tumor volume amounted to 568 mm^3 in assay [2] (setting [15]); 1499 mm^3 in assay [2] (setting [16]); 508 mm^3 in assay [2] (setting [17]); 371 mm^3 in assay [3] (0 days); 437 mm^3 in assay [3] (2 days); 448 mm^3 in assay [3] (6 days). Also, the Tumor volume in assay [3] (9 days) worked out at 485 mm^3; in assay [3] (13 days), 512 mm^3; in assay [3] (16 days), 492 mm^3; in assay [3] (20 days), 457 mm^3; in assay [3] (23 days), 391 mm^3. In assay [1] (after 16 days, 25 mg/kg), the “tumor volume was reduced to (from 277 mm^3)” value came to 119 mm^3.

`COc1cc(C2CCC3(CC2)CCN(C)CC3)ccc1Nc1ncc(Cl)c(Nc2ccccc2P(C)(C)=O)n1` [Compound 27, (2-((5-Chloro-2-((2-methoxy-4-(3-methyl-3-azaspiro[5.5]undecan-9-yl)phenyl)amino)pyrimidin-4-yl)amino)phenyl)dimethyl phosphine oxide] had an IC50 against EGFR T790M/L858R of 0.001 to 0.1 µM. Also, the Tumor volume in assay [1] (3 days) is 158 mm^3; in assay [1] (6 days), 82 mm^3; in assay [1] (9 days), 68 mm^3; in assay [1] (12 days), 49 mm^3; in assay [1] (16 days), 34 mm^3; in assay [1] (19 days), 41 mm^3. For the same compound, the Tumor volume in assay [1] (23 days) is on record as 35 mm^3; in assay [2] (setting [4]), 503 mm^3; in assay [2] (setting [5]), 502 mm^3; in assay [2] (setting [6]) it was 689 mm^3; in assay [2] (setting [7]), 650 mm^3; in assay [2] (setting [8]) it was 777 mm^3. Further, the Tumor volume in assay [2] (setting [9]) was found to be 752 mm^3; in assay [2] (setting [10]), 1003 mm^3; in assay [2] (setting [11]) it was 743 mm^3; in assay [2] (setting [12]), 1177 mm^3; in assay [2] (setting [13]), 705 mm^3; in assay [2] (setting [14]), 1490 mm^3. The Tumor volume in assay [2] (setting [15]) was 756 mm^3; in assay [2] (setting [16]), 1602 mm^3; in assay [2] (setting [17]) it was 692 mm^3.

With `COc1ccc(C2CC3(CC(=O)N(C)C3)C2)cc1Nc1ncc(Cl)c(Nc2ccccc2P(C)(C)=O)n1` (stereo not shown) [Compound 2, 2-(3-((5-Chloro-4-((2-(dimethylphosphoryl)phenyl)amino)pyrimidin-2-yl)amino)-4-methoxyphen-yl)-6-methyl-6-azaspiro[3.4]octan-7-one], the IC50 on ALK wild-type, against ALK L1196M, at ALK C1156Y and against EGFR T790M/L858R was 0.101 to 1 µM each time.

On to `COc1cc(N2CCC3(CN(C)C3)C2)ccc1Nc1ncc(Cl)c(Nc2ccccc2P(C)(C)=O)n1` [Compound 7, (2-((5-Chloro-2-((2-methoxy-4-(2-methyl-2,6-diazaspiro[3.4]octan-6-yl)phenyl)amino)pyrimidin-4-yl)amino)phenyl)dimethyl phosphine oxide], for which the IC50 was in the range of 0.001 to 0.1 µM on ALK wild-type, 0.101 to 1 µM against ALK L1196M, 0.101 to 1 µM on ALK C1156Y and 0.101 to 1 µM at EGFR T790M/L858R.

With `COc1cc(N2CCC3(CCC(N(C)C)CC3)CC2)ccc1Nc1ncc(Cl)c(Nc2ccccc2P(C)(C)=O)n1` [Compound 14, (2-((5-Chloro-2-((4-(9-(dimethylamino)-3-azaspiro[5.5]undecan-3-yl)-2-methoxyphenyl)amino)pyrimidin-4-yl)amino)phenyl)dimethyl phosphine oxide], the concentration for half-maximal inhibition (IC50) on ALK wild-type, on ALK L1196M, on ALK C1156Y and on EGFR T790M/L858R was 0.001 to 0.1 µM each time.

Take `Cc1cc(Nc2ncc(Cl)c(Nc3ccccc3S(=O)(=O)C(C)C)n2)c(OC(C)C)cc1C1CCNCC1` [LDK378]: the Tumor volume in assay [3] (0 days) amounted to 373 mm^3; in assay [3] (2 days), 397 mm^3; in assay [3] (6 days) it was 366 mm^3; in assay [3] (9 days), 350 mm^3; in assay [3] (13 days), 425 mm^3; in assay [3] (16 days), 369 mm^3. Also, the values for the Tumor volume in assay [3] (20 days) and in assay [3] (23 days) were 329 mm^3 and 268 mm^3, respectively.
